In ChEMBL document CHEMBL5579789, “Azafuramidines as potential anticancer Agents: Pro-apoptotic profile and cell cycle arrest” (Bioorg Med Chem Lett, 2024):
Activity calls are given as the source filed them. No cut-off for these calls is given here.

What was measured:
MCF7 [1] = assay: Induction of morphological changes in human MCF7 cells assessed as cell enlargement with vacuolated cytoplasm at IC50 concentration; assay type: functional, cell-based
HepG2 [2] = assay: Induction of apoptosis in human HepG2 cells assessed as viable cells at IC50 concentration by annexin V-FITC/7-AAD staining based flow cytometric analysis (reference value: 99.7 %); assay type: functional
U2OS [3] = assay: Induction of morphological changes in human U2OS cells assessed as cell enlargement with vacuolated cytoplasm at IC50 concentration; assay type: functional, cell-based
HepG2 [4] = assay: Inhibition of cell migration in human HepG2 cells assessed as wound confluence at IC50 concentration incubated for 24 hrs by scratch wound assay (reference value: 98.01 +/- 0.14 %); assay type: functional; design: scale not given: the % may be the effect or the level left
HepG2 [5] = assay: Cell cycle arrest in human HepG2 cells assessed as accumulation of cells at S phase at IC50 concentration incubated for 48 hrs by PI staining based flow cytometric analysis (reference value: 21.0 %); assay type: functional
HepG2 [6] = assay: Induction of apoptosis in human HepG2 cells assessed as apoptotic cells at IC50 concentration by annexin V-FITC/7-AAD staining based flow cytometric analysis (reference value: 0.28 %); assay type: functional
[7] = Inhibition of cell migration in human […] cells at IC50 concentration incubated for 24 hrs relative to control; assay type: functional
HepG2 [8] = assay: Induction of apoptosis in human HepG2 cells assessed as fold increase in p53 level by Western blot analysis; assay type: functional
HepG2 [9] = assay: Induction of morphological changes in human HepG2 cells assessed as cell detachment at IC50 concentration; assay type: functional, cell-based
HepG2 [10] = assay: Inhibition of cell migration in human HepG2 cells assessed as wound confluence at IC50 concentration incubated for 10 hrs by scratch wound assay (reference value: 32.01 +/- 0.67 %); assay type: functional; design: scale not given: the % may be the effect or the level left
HepG2 [11] = assay: Induction of apoptosis in human HepG2 cells assessed as fold increase in p21 level by Western blot analysis; assay type: functional
HepG2 [12] = assay: Antiproliferative activity against human HepG2 cells assessed as inhibition of cell growth; assay type: functional, cell-based
U2OS [13] = assay: Induction of morphological changes in human U2OS cells assessed as appearance of dense nuclei at IC50 concentration; assay type: functional, cell-based
U2OS [14] = assay: Induction of morphological changes in human U2OS cells assessed as appearance of vesicular nuclei at IC50 concentration; assay type: functional, cell-based
HepG2 [15] = assay: Cell cycle arrest in human HepG2 cells assessed as accumulation of cells at G2/M phase at IC50 concentration incubated for 48 hrs by PI staining based flow cytometric analysis (reference value: 19.4 %); assay type: functional
U2OS [16] = assay: Antiproliferative activity against human U2OS cells assessed as change in cell viability at IC50 concentration; assay type: functional, cell-based
U2OS [17] = assay: Antiproliferative activity against human U2OS cells assessed as inhibition of cell growth; assay type: functional, cell-based
U2OS [18] = assay: Induction of morphological changes in human U2OS cells assessed as appearance of hyper chromatic nuclei at IC50 concentration; assay type: functional, cell-based
HepG2 [19] = assay: Induction of apoptosis in human HepG2 cells assessed as late apoptotic cells at IC50 concentration by annexin V-FITC/7-AAD staining based flow cytometric analysis (reference value: 0.0 %); assay type: functional
[20] = Cytotoxicity against human WI-38 cells assessed as inhibition of cell growth; assay type: toxicity, cell-based
MCF7 [21] = assay: Induction of morphological changes in human MCF7 cells assessed as appearance of vesicular nuclei at IC50 concentration; assay type: functional, cell-based
HepG2 [22] = assay: Induction of morphological changes in human HepG2 cells assessed as appearance of dense nuclei at IC50 concentration; assay type: functional, cell-based
U2OS [23] = assay: Induction of morphological changes in human U2OS cells assessed as cell detachment at IC50 concentration; assay type: functional, cell-based
HepG2 [24] = assay: Induction of apoptosis in human HepG2 cells assessed as fold increase in p27 level by Western blot analysis; assay type: functional
HepG2 [25] = assay: Induction of apoptosis in human HepG2 cells assessed as late apoptotic cells at IC50 concentration by annexin V-FITC/7-AAD staining based flow cytometric analysis (reference value: 0.3 %); assay type: functional
HepG2 [26] = assay: Induction of apoptosis in human HepG2 cells assessed as early apoptotic cells at IC50 concentration by annexin V-FITC/7-AAD staining based flow cytometric analysis (reference value: 0.0 %); assay type: functional
HepG2 [27] = assay: Antiproliferative activity against human HepG2 cells assessed as change in cell viability at IC50 concentration; assay type: functional, cell-based
MCF7 [28] = assay: Antiproliferative activity against human MCF7 cells assessed as change in cell viability at IC50 concentration; assay type: functional, cell-based
U2OS [29] = assay: Induction of morphological changes in human U2OS cells assessed as appearance of degenerative features at IC50 concentration; assay type: functional, cell-based
MCF7 [30] = assay: Induction of morphological changes in human MCF7 cells assessed as cell detachment at IC50 concentration; assay type: functional, cell-based
MCF7 [31] = assay: Induction of morphological changes in human MCF7 cells assessed as appearance of degenerative features at IC50 concentration; assay type: functional, cell-based
HepG2 [32] = assay: Cell cycle arrest in human HepG2 cells assessed as accumulation of cells at G0/G1 phase at IC50 concentration incubated for 48 hrs by PI staining based flow cytometric analysis (reference value: 58.2 %); assay type: functional
MCF7 [33] = assay: Antiproliferative activity against human MCF7 cells assessed as inhibition of cell growth; assay type: functional, cell-based
HepG2 [34] = assay: Induction of morphological changes in human HepG2 cells assessed as cell enlargement with vacuolated cytoplasm at IC50 concentration; assay type: functional, cell-based
HepG2 [35] = assay: Induction of morphological changes in human HepG2 cells assessed as appearance of vesicular nuclei at IC50 concentration; assay type: functional, cell-based
MCF7 [36] = assay: Induction of morphological changes in human MCF7 cells assessed as appearance of hyper chromatic nuclei at IC50 concentration; assay type: functional, cell-based
HepG2 [37] = assay: Induction of morphological changes in human HepG2 cells assessed as appearance of degenerative features at IC50 concentration; assay type: functional, cell-based
HepG2 [38] = assay: Induction of morphological changes in human HepG2 cells assessed as appearance of hyper chromatic nuclei at IC50 concentration; assay type: functional, cell-based
HepG2 [39] = assay: Inhibition of cell migration in human HepG2 cells assessed as wound confluence at IC50 concentration incubated for 4 hrs by scratch wound assay (reference value: 19.38 +/- 0.12 %); assay type: functional; design: scale not given: the % may be the effect or the level left
MCF7 [40] = assay: Induction of morphological changes in human MCF7 cells assessed as appearance of dense nuclei at IC50 concentration; assay type: functional, cell-based

Structure (SMILES) | Activity (MCF7 [1]) | Activity (HepG2 [2]) | Activity (U2OS [3]) | Activity (HepG2 [4]) | Activity (HepG2 [5]) | Activity (HepG2 [6]) | fold change (FC) (HepG2 [8]) | Activity (HepG2 [9]) | Activity (HepG2 [10]) | IC50 (HepG2 [12]) | Activity (U2OS [13]) | Activity (U2OS [14]) | Activity (HepG2 [15]) | Activity (U2OS [16]) | IC50 (U2OS [17]) | Activity (U2OS [18]) | Activity (HepG2 [19]) | IC50 [20] | Activity (MCF7 [21]) | Activity (HepG2 [22]) | also measured
N=C(N)c1ccc(-c2ccc(-c3ccc(Cl)cc3)o2)nc1 | Active | 28.7% | Active | 46.65% | 43.6% | 70.5% | ~2.5 | Active | 33.72% | 1550 nM | Active | Active | 47.1% | Active | 1730 nM | Active | 0.4% | 77000 nM | Active | Active | inhibition (INH) [7]: ~55%; fold change (FC) (HepG2 [11]): ~3; Activity (U2OS [23]): Active; fold change (FC) (HepG2 [24]): ~2.3; Activity (HepG2 [25]): 16.9%; Activity (HepG2 [26]): 54%; Activity (HepG2 [27]): Active; Activity (MCF7 [28]): Active; Activity (U2OS [29]): Active; Activity (MCF7 [30]): Active; Activity (MCF7 [31]): Active; Activity (HepG2 [32]): 9.2%; IC50 (MCF7 [33]): 1640 nM; Activity (HepG2 [34]): Active; Activity (HepG2 [35]): Active; Activity (MCF7 [36]): Active; Activity (HepG2 [37]): Active; Activity (HepG2 [38]): Active; Activity (HepG2 [39]): 14.19%; Activity (MCF7 [40]): Active
N=C(N)c1ccc(-c2ccc(-c3cc(Cl)cc(Cl)c3)o2)nc1 | Active | 31.5% | Active | 64.83% | 19.1% | 66.1% | ~2.5 | Active | 47.49% | 1870 nM | Active | Active | 20.6% | Active | 1810 nM | Active | 0.1% | 101000 nM | Active | Active | Activity (U2OS [23]): Active; Activity (HepG2 [25]): 14.3%; Activity (HepG2 [26]): 54%; Activity (HepG2 [27]): Active; Activity (MCF7 [28]): Active; Activity (U2OS [29]): Active; Activity (MCF7 [30]): Active; Activity (MCF7 [31]): Active; Activity (HepG2 [32]): 59.6%; IC50 (MCF7 [33]): 1690 nM; Activity (HepG2 [34]): Active; Activity (HepG2 [35]): Active; Activity (MCF7 [36]): Active; Activity (HepG2 [37]): Active; Activity (HepG2 [38]): Active; Activity (HepG2 [39]): 14.4%; Activity (MCF7 [40]): Active
N=C(N)c1ccc(-c2ccc(-c3ccc(F)cc3)o2)nc1 | Active | 41.9% | Active | 42.09% | 39.1% | 59.3% | ~2.5 | Active | 32.89% | 1060 nM | Active | Active | 41.4% | Active | 1720 nM | Active | 0.1% | 89000 nM | Active | Active | inhibition (INH) [7]: ~55%; fold change (FC) (HepG2 [11]): ~5; Activity (U2OS [23]): Active; fold change (FC) (HepG2 [24]): ~3.1; Activity (HepG2 [25]): 10.6%; Activity (HepG2 [26]): 47.4%; Activity (HepG2 [27]): Active; Activity (MCF7 [28]): Active; Activity (U2OS [29]): Active; Activity (MCF7 [30]): Active; Activity (MCF7 [31]): Active; Activity (HepG2 [32]): 19.4%; IC50 (MCF7 [33]): 1600 nM; Activity (HepG2 [34]): Active; Activity (HepG2 [35]): Active; Activity (MCF7 [36]): Active; Activity (HepG2 [37]): Active; Activity (HepG2 [38]): Active; Activity (HepG2 [39]): 14.07%; Activity (MCF7 [40]): Active
